In PMC11557314 (Frontiers in Pharmacology, 2024):
Read-outs that look alike come from different tables or passages of the source. Where no end group is shown, it is not given here. [ ]: non-standard residue; d: D form. βAla = NCCC(=O)O

Key:
hKOPr [1] = molecular target: T1, hKOPr (Homo sapiens, UniProt P41145); assay: biochemical; conditions: for EC50: read-out: Potency at hKOPr EC50
hDOPr [2] = molecular target: T2, hDOPr (Homo sapiens, UniProt P41143); assay: [35S]GTPγS functional assay on hDOPr-CHO cell membranes; assay type: biochemical
Experimental: CHO cells stably transfected with human KOPr, MOPr, and DOPr (hKOPr-CHO, hMOPr-CHO, and hDOPr-CHO, respectively) were provided by Prof. Liu-Chen (Temple University, Philadelphia, United States). The cells were grown in Gibco™ Dulbecco’s minimal essential medium (DMEM) for hKOPr-CHO or Gibco™ DMEM/F-12 for hMOPr and hDOPr. Both media were supplemented with 10% FBS (Gibco™), GlutaMAX (100 μg/mL; Gibco™), penicillin/streptomycin (100 μg/mL; Gibco™), and geneticin (G418, 400 μg/mL; Gibco™). HEK 293 cells were grown in high-glucose DMEM supplemented with 10% FBS (Gibco™), GlutaMAX (100 μg/mL; Gibco™), and penicillin/streptomycin (100 μg/mL; Gibco™). Cell cultures were maintained in a Heracell™ 150i CO2 incubator at 37°C and 5.0% CO2.
Functional assays were conducted on hKOPr-CHO, hMOPr-CHO, and hDOPr-CHO cell membranes (see above). The membranes were prepared in a buffer containing 20 mM HEPES, 10 μM GDP, cell membrane (10–30 μg), and 0.05 nM [^35S]GTPγS. The buffer containing the cell membranes was incubated with an increasing concentration of the test peptide diluted in 1 × HEPES, pH 7.4, in a total volume of 1 mL, for 60 min at 25°C. The peptide solutions were replaced by diluents for untreated controls. Non-specific binding was determined using unlabeled 10 μM GTPγS. Samples were rapidly washed three times with Tris-HCl and filtered through glass fiber filters (GF/B Whatman). The bound radioactivity was measured by liquid scintillation (Carl Roth GmbH, Karlsruhe, Germany) counting on a Packard 1600 TR Tri-Carb Beta counter (Canberra, Belgium).

hDOPr [3] = molecular target: T2, hDOPr; assay: Competitive radio binding assay with [3H]-diprenorphine on hDOPr-CHO cell membranes
hKOPr [4] = assay: Biased factor calculation from GTPγS and PRESTO-Tango data; design: species or system human; conditions: G-protein vs β-arrestin, DynA as reference; below 1 = β-arrestin bias
From the text: To perform biased factor analyses, we followed the step-by-step protocol described by [Nagi and Pineyro (2016)]. In short, curve fitting was used to calculate τ and Ka values for G-protein and β-arrestin pathway activation. Log(τ/Ka) ratios were subtracted by log(τ/Ka) of DynA as the reference to yield ΔLog(τ/Ka) values for each peptide. In a final step for each peptide, ΔLog (τ/Ka) values for G-protein pathway activation were subtracted from ΔLog(τ/Ka) values for β-arrestin pathway activation and vice versa to calculate ΔΔLog(τ/Ka). The biased factor is yielded by delogging ΔΔLog (τ/Ka).
To confidently identify a G-protein-biased peptide of interest, it is essential to keep in mind that the responses we collected through GTPγS and PRESTO-Tango assay are not solely determined by drug signaling properties but also by the way the cell and different assays “perceive” the generation of this response. These different “perceptions” of the pharmacological stimulus may themselves be responsible for an imbalance among signals from different pathways. To avoid this, and to be able to correctly estimate whether a peptide is indeed biased, we applied the method proposed by [Kenakin et al. (2012)], that is based on the operational method proposed by [Black and Leff (1983)]. This method takes into consideration receptor occupation by the agonist, communication of the pharmacological stimulus to the system, and the processing of the stimulus by the system that produces the response.

hKOPr [5] = molecular target: T1, hKOPr; assay: cell-based; assay type: cell-based; conditions: HEK293, read-out: β-Arrestin recruitment, efficacy at hKOPr Emax
hMOPr = hMOPr (Homo sapiens, UniProt P35372); assay: Competitive radio binding assay with [3H]-DAMGO on hMOPr-CHO cell membranes; conditions: read-out: Ki hMOPr; [3H]-DAMGO 1 nM, 60 min 25°C; mean ± SEM
hKOPr [6] = molecular target: T1, hKOPr; assay type: binding; conditions: for Ki: read-out: Ki hKOPr
hKOPr [7] = test system: hKOPr; design: method as in Bedini et al., 2020; conditions: result in words; ref Bedini et al., 2020; cited from earlier work
[8] = read-out: Efficacy at hKOPr Emax
[9] = read-out: Ki hDOPr, [3H]-diprenorphine 1 nM, 60 min 25°C, mean ± SEM

hMOPr, sequence (P35372 whole entry): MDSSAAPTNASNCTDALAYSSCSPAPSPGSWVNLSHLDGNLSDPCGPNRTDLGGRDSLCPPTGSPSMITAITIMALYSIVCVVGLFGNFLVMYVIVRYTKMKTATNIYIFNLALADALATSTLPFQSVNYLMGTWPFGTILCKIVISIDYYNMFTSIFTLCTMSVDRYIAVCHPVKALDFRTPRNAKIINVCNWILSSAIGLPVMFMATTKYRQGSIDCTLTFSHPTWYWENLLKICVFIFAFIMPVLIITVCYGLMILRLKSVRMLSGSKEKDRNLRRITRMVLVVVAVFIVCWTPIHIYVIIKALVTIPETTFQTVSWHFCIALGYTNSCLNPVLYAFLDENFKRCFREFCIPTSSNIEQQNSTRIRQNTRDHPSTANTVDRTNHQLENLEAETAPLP
T2 sequence (P41143 whole entry): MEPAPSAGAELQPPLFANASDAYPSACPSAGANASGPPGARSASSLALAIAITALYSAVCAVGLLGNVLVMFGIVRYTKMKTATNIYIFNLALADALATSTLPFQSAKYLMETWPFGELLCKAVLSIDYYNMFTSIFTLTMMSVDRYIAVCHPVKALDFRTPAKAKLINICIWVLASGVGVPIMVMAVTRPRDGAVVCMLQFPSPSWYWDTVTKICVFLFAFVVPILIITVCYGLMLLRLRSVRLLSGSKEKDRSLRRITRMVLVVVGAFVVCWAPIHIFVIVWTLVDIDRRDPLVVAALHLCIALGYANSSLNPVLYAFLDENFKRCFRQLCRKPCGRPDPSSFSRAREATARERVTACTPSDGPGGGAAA
T1 sequence (P41145 whole entry): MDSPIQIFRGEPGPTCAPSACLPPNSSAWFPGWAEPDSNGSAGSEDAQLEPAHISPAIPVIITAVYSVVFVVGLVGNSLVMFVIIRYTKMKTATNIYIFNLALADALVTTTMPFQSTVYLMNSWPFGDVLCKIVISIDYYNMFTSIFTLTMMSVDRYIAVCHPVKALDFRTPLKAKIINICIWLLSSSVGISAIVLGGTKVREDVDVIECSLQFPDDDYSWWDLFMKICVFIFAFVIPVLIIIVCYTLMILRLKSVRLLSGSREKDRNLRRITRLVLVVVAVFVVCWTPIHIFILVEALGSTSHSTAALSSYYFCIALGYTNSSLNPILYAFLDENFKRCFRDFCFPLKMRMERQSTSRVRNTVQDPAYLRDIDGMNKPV

Molecule	Emax (hKOPr [1]; [8])	EC50 (hKOPr [1])	Ki (hMOPr)	Selectivity DOPr/KOPr (hKOPr [6])	Ki (hKOPr [6])	Ki (hDOPr [3]; [9])	agonist category at hKOPr (GTPγS) (hKOPr [1])	Selectivity MOPr/KOPr (hKOPr [6])	further results
CC(C)C[C@H](NC(=O)[C@H](Cc1ccccc1)NC(=O)CNC(=O)CNC(=O)[C@@H](N)Cc1ccc(O)cc1)C(=O)N[C@@H](CCCNC(=N)N)C(=O)N[C@@H](CCCNC(=N)N)C(=O)N[C@@H](CCC(N)=O)C(=O)N[C@@H](Cc1ccccc1)C(=O)N[C@@H](CCCCN)C(=O)N[C@H](C(=O)N[C@H](C(=O)N[C@H](C(=O)O)[C@@H](C)O)C(C)C)C(C)C [DynB_WT, dynorphin B, reference compound]	120 ± 1.5%								hKOPr % stim, stimulation of [35S]GTPγS binding (hKOPr [1]): 120 ± 1.5%; preference for hKOPr over hDOPr (GTPγS) (hKOPr [1]): 12 fold; preference for hKOPr over hMOPr (GTPγS) (hKOPr [1]): 6 fold; Emax (hKOPr [1]; read-out: Emax higher than DynA): 20%; EC50 (hDOPr [2]): 59.3 ± 6.7 nM; hDOPr % stim, stimulation of [35S]GTPγS binding (hDOPr [2]; Table 3, normalized to DynA, mean ± SEM): 104 ± 3.6%; Ki (hDOPr [3]): 80.2 ± 6.4 nM; biased factor at hKOPr (hKOPr [4]): 0.8 ± 0.2; Emax (hKOPr [5]): 111 ± 5.3%
FGGFLRRQFKVVT [DynB_Y1F]	110 ± 5.5%	393 ± 47.3 nM	217 ± 13.5 nM	44	37.3 nM	1620 nM			potency for hKOPr as compared to DynB (GTPγS) (hKOPr [1]): strongly reduced potency
YGAFLRRHFKVVT [DynB_G3A/Q8H]	74.9 ± 1.6%	6.77 ± 0.82 nM	41.9 ± 1.3 nM	1,508	0.3 nM	460 ± 44.2 nM	partial agonists	137	
YGAFLRRQFAVVT [DynB_G3A/K10 A]	84 ± 3.6%	16.7 ± 2.45 nM	90.4 ± 7.6 nM	317	1.57 nM	497 ± 105 nM		58	
YGAFLRRQFKVVT [DynB_G3A]	83.4 ± 5.5%	27.9 ± 8.72 nM	82.3 ± 7.9 nM	149	2.13 nM	317 ± 34.1 nM		39	
YGAFSRRQFKVVT [DynB_G3A/L5S]	92.5 ± 5.7%	116 ± 11.2 nM	98.3 ± 5.9 nM	2,195	1.73 nM	3790 nM		57	decrease of potency compared to DynB_WT (hKOPr [1]): more than 20 fold; potency for hKOPr as compared to DynB (GTPγS) (hKOPr [1]): strongly reduced potency
YGGFLRRAFKVVT [DynB_Q8A]	125 ± 12.3%								
YGGFLRRHFKVVT [DynB_Q8H]	111.5 ± 0.9%	2.25 ± 0.47 nM	7.7 ± 1.4 nM	507	0.21 nM	106 ± 17.1 nM		36	
YGGFLRRQFAVVT [DynB_K10 A]	132 ± 3.9%								
YGMFLRRHFKVVT [DynB_G3M/Q8H]	42.1 ± 1.3%	5.43 ± 0.53 nM	97.1 ± 15.8 nM	459	0.36 nM	167 ± 19 nM	partial agonists	268	
YGMFLRRQFKVVT [DynB_G3M]	54.5 ± 1.8%	14.1 ± 4.17 nM	117 ± 6.9 nM	141	0.61 nM	85.3 ± 16.4 nM	partial agonists	193	
YGMFSRRQFKVVT [DynB_G3M/L5S]	52.6 ± 1.6%	170 ± 23.7 nM	290 ± 17.9 nM	1,115	7.24 nM	8080 nM	partial agonists	40	potency for hKOPr as compared to DynB (GTPγS) (hKOPr [1]): strongly reduced potency
cyclo(FG[βAla][dW]) [LOR17]									G-protein bias at the hKOPr (hKOPr [7]): strong G-protein bias
